Test results published in patent US20140295012A1, “LATENT HUMAN IMMUNODEFICIENCY VIRUS REACTIVATION” (priority 2011, published 2014).

B1: HEXIM-1 (other, UniProt O94992 1-359, looked up)
chain: MAEPFLSEYQHQPQTSNCTGAAAVQEELNPERPPGAEERVPEEDSRWQSRAFPQLGGRPGPEGEGSLESQPPPLQTQACPESSCLREGEKGQNGDDSSAGGDFPPPAEVEPTPEAELLAQPCHDSEASKLGAPAAGGEEEWGQQQRQLGKKKHRRRPSKKKRHWKPYYKLTWEEKKKFDEKQSLRASRIRAEMFAKGQPVAPYNTTQFLMDDHDQEEPDLKTGLYSKRAAAKSDDTSDDDFMEEGGEEDGGSDGMGGDGSEFLQRDFSETYERYHTESLQNMSKQELIKEYLELEKCLSRMEDENNRLRLESKRLGGDDARVRELELELDRLRAENLQLLTENELHRQQERAPLSKFGD

Experiments:
[1] = system: latently HIV-1 infected CA5 T cells; format: cell-based; conditions: CA5 cells pretreated with increasing concentrations
Method: Infection levels in the cell cultures were monitored by flow cytometric analysis of EGFP expression. Flow cytometric analysis was performed on a GUAVA EasyCyte (Millipore; Billerica, Mass.), or a LSRII (Becton & Dickinson; Franklin Lakes, N.J.).
Bacterial growth. Bacteria from various sources were isolated on TSA II agar plates containing 5% sheep blood. Bacterial isolates were then grown in RPMI 1640 medium supplemented with 10% FBS. After two days of incubation at 37° C. bacteria were pelleted and resuspended in RPMI medium to an optical density (OD600) of 8, aliquoted and frozen at −80° C. Unless otherwise indicated, Massilia timonae was grown in RPMI 1640 medium supplemented with 10% FBS. Typically, medium was inoculated with Massilia timonae from frozen stocks to an OD600 of 0.01. After 48 hours at 37° C., the culture was centrifuged at 3200 g to separate bacteria from the culture medium. Bacteria were resuspended in fresh medium to an OD600 of 8 and frozen to be used as references and stock cultures. The supernatant was then centrifuged at 10,000 g for 20 minutes and sterilized by passage through a 0.2 μm PVDF filter with low protein binding ability. HRF activity was determined by its ability to reactivate latent HIV-1 infection in CA5 cells. Only supernatants of which 6 μl reactivated infection in at least 60% of CA5 cells were used to study HRF properties.
Flow cytometry. Infection levels in the cell cultures were monitored by flow cytometric (FCM) analysis of GFP expression. FCM analysis was performed on a GUAVA EasyCyte (GUAVA Technologies, Inc.; Millipore; Billerica, Mass.) and a BD FACSCalibur or a LSRII (Becton & Dickinson; Franklin Lakes, N.J.). Cell sorting experiments were performed using a FACSAria™ Flow Cytometer (Becton&Dickinson). Data analysis was performed using either CellQuest (Becton&Dickinson) or GUAVA Express (GUAVA Technologies, Inc.).
To identify the optimal concentration of dactinomycin, CA5 T cells were pretreated with increasing concentrations of dactinomycin (0.0001 and 1 μg/ml), and then left untreated or stimulated with a sub-optimal concentration of HRF or TNF-α. Representative results for stimulation with HRF are depicted in FIG. 3. The chosen HRF concentration has only minimal HIV-1 reactivating effect by itself (15% reactivation over background). Twenty four hours after activator addition, levels of HIV-1 reactivation were determined as the percentage of GFP-positive cells using flow cytometric analysis, which allowed for the simultaneous determination of cell viability. […] Optimal pretreatment time was 18 hours. Maximum reactivation effects were seen 48 hours after stimulation.

[2] = system: latently HIV-1 infected primary T cells; test: Reactivation of latent HIV-1 infection in primary T cells (GFP); format: cell-based; conditions: 24 hours
Method: Latently HIV-1 infected primary T cells were treated for 24 hours with aclacinomycin (ACM) or dactinomycin (ActD), or with the anti-CD3 monoclonal antibody (mAb) OKT3. Reactivation levels were determined as a percentage of GFP-positive cells 24 hours after stimulation. Viability of the cells correlates with the size of the symbol.
To determine if aclacinomycin or dactinomycin were capable of reactivating a latent HIV-1 infection in primary T cells, latently HIV-1 infected primary T cells were treated with aclacinomycin or dactinomycin or with the anti-CD3 monoclonal antibody OKT3 for 24 hours. Reactivation of the latent HIV-1 infection was observed by increasing levels of GFP fluorescence.

[3] = target: T1, positive transcription elongation factor (P-TEFb), a complex of CDK9 and Cyclin T1 (UniProt P50750 1-372; O60563 1-726); test: glycerol gradient (10-45%) sedimentation of J89GFP cell lysates, Western blot of the fractions with anti-CDK9 and anti-HEXIM-1
T1 construct: also called CDK9/CycT1
T1 sequence (P50750 whole entry, chain 1 of 2): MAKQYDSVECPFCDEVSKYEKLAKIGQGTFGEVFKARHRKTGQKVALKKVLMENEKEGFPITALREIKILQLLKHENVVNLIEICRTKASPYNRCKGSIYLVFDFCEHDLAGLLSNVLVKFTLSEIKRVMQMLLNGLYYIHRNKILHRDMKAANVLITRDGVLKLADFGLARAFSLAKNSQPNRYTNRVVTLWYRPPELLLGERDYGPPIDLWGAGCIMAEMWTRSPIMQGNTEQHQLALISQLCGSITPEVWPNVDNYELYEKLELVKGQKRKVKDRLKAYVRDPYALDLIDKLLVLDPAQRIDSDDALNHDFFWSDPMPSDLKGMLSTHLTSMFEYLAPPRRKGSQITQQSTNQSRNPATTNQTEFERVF
T1 sequence (O60563 whole entry, chain 2 of 2): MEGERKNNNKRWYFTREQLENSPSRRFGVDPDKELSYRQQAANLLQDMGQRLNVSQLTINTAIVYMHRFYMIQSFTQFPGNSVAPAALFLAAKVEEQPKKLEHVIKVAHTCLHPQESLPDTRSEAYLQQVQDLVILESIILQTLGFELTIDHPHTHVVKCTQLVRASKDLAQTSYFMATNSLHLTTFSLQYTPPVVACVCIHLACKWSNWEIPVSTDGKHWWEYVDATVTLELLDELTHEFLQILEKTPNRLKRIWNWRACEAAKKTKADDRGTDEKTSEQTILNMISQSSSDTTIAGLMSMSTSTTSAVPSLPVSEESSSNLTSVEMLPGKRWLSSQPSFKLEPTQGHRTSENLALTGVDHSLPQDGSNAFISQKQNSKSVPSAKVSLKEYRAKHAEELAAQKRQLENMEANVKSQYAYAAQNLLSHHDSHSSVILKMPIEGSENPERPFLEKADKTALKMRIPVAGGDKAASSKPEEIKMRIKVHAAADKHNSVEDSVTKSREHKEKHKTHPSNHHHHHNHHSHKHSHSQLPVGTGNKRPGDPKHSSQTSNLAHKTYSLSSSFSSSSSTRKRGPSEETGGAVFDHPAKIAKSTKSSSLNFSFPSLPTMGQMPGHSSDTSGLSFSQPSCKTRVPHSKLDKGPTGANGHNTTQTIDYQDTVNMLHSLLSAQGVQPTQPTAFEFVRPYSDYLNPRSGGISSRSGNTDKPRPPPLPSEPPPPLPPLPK
Method: Each gradient fraction was separated on a 10% SDS-PAGE gel and transferred by Western blot. […] Band densities were determined using ImageJ and are presented as relative band density. […] Band densities were determined using ImageJ and are presented as relative band density.
Fractions were resolved on 10% SDS-PAGE and transferred to polyvinylidene fluoride membrane.
Each gradient fraction was separated on a SDS-PAGE gel and subjected to Western blotting.

Molecule | priming effect on HIV-1 reactivation by sub-optimal dose of HRF [1] | reactivation of latent HIV-1 infection [2] | binding result [3]
CC[C@@]1(O)C[C@H](O[C@H]2C[C@H](N(C)C)[C@H](O[C@H]3C[C@H](O)[C@H](O[C@H]4CCC(=O)[C@H](C)O4)[C@H](C)O3)[C@H](C)O2)c2c(cc3c(c2O)C(=O)c2c(O)cccc2C3=O)[C@H]1C(=O)OC [aclacinomycin] | strong priming effect | capable of reactivating latent HIV-1 infections | 
B1 |  |  | binds
